Assay results from patent EP0511003B1, “Superactive GRF analogs” (ELI LILLY AND COMPANY, priority 1991, dated 1992).
Marks after values point to notes of the source that are not given here.

Columns and labels:
[1] = target: T1, rat primary pituitary cells (Rattus norvegicus, UniProt Q02644); assay: Growth hormone release in vitro from rat primary pituitary cells; format: cell-based; details: growth hormone released into media after exposure to 7 doses of secretagogue for 3h
T1 sequence (Q02644 23-464): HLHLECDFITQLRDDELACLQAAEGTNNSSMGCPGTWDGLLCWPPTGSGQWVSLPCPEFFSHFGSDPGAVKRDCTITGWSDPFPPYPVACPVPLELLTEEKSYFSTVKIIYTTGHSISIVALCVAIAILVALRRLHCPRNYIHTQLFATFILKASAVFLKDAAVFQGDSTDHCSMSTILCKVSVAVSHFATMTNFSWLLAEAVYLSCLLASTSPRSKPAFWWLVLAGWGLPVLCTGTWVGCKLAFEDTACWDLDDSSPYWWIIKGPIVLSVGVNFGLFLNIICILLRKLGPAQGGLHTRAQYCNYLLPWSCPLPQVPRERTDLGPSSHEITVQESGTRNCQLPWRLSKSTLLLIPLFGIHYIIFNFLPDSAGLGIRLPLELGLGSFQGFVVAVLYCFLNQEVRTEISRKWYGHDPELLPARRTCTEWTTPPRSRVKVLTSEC
Protocol: The polypeptide compounds of the invention may be assayed in numerous systems. One in vivo assay is carried out in sodium pentobarbital-anesthetized rats. Wehrenberg et al., Biochem. Biophys. Res. Commun. 109:382 (1982). Growth hormone release is measured in vitro with rat anterior pituitary cells. Heiman et al., Endocrinol. 116:410 (1985).

barrows = assay: In vivo effects in barrows injected subcutaneously or intravenously 3 times daily (urinary urea nitrogen excretion and serum parameters); details: for GH: serum Growth Hormone level; for GH / TRIG. / BUN / FFA / GLUCOSE / INSULIN: 12th day of treatment; for GH / TRIG. / BUN / FFA / GLUCOSE / INSULIN / UREA: means; for TRIG.: serum triglycerides; for BUN / FFA / GLUCOSE / INSULIN: serum; for UREA: urinary urea nitrogen excretion, injected 3 times daily
Protocol: A carrier solution was prepared by dissolving 1.38 g of Na2HP04 and 1.0g PSA with pyrogen free H2O to a final volume of 1 litre, pH approximately 5.1. 27.4 mg The p-methyl hippuroyl pGRF (2-76)OH prepared in substantial accordance with the teaching of Example 4.B. above was added to 64 ml of the carrier solution to achieve a final concentration of […].
Twenty crossbred barrows, averaging approximately 72 kg, with an indwelling catheter which had been surgically inserted into the femoral vein, were used to determine the effects of p-methyl hippuroyl pGRF (2-76)OH. A formulation of the p-methyl hippuroyl pGRF (2-76)OH was prepared in substantial accordance with the teaching of Example 11 above and injected 3 times daily at a rate of 10.0 µg/kg/inj., either intravenously (I.V.) or subcutaneously (S.Q.). The barrows were fed 2000 g of an 18.5% crude protein corn-soy diet per day, equally divided between 2 feedings at 8:00 a.m. and 4:00 p.m. The barrows were injected at 8:00 a.m., 4:00 p.m., and 12:00 p.m. Urinary urea nitrogen excretion data were collected during 1 5day control period, 4 3-day treatment periods, and 2 3-day periods after treatments were stopped. Thirty blood serum samples were collected during a 24-hour period on the 12th day of treatment. The serum samples were assayed for GH, BUN, glucose, insulin, FFA, and triglycerides.

[2] = Table 1, bGRF analogs, EC50 is the calculated median effective dose
[3] = injected 3 times daily at a rate of 30.0 µg/kg/d, versus control barrows

Hippuroyl-1 bGRF(2-77)0H
EC50 [1, 2]: 0.86 nM

p-Nitro Hippuroyl bGRF (2-77)0H
EC50 [1, 2]: 0.51 nM

bGRF (1-77)0H [reference compound]
EC50 [1, 2]: 0.59 nM

des Tyr-1 pGRF(2-76)0H [reference compound]
EC50 ([1]; Table 2, pGRF(2-76)OH analogs): 95 nM

p-Methyl Hippuroyl bGRF(2-77)OH
EC50 [1, 2]: 0.05 nM

p-Chloro Hippuroyl bGRF(2-77)OH
EC50 [1, 2]: 0.19 nM

Hippuroyl-1 pGRF(2-76)OH
EC50 ([1]; Table 2, pGRF(2-76)OH analogs): 0.28 nM

p-Methyl Phenylmalonamindoyl pGRF(2-76)OH
EC50 ([1]; Table 2, pGRF(2-76)OH analogs): 0.06 nM

p-Fluoro Hippuroyl bGRF(2-77)0H
EC50 [1, 2]: 0.14 nM

p-Hydroxy Hippuroyl bGRF(2-77)0H
EC50 [1, 2]: 0.33 nM

p-Methyl Hippuroyl pGRF(2-76)OH
EC50 ([1]; Table 2, pGRF(2-76)OH analogs): 0.06 nM | EC50 ([1]; Table 3, p-Methyl Hippuroyl-1 pGRF analogs of different length): 0.06 nM | increase in serum GH levels (barrows; [3]): 4 fold | reduction in serum BUN levels (barrows; [3]): 54% | reduction in urinary urea nitrogen excretion (barrows; [3]): 41% | GH (barrows; IV 30 µg/kg/d): 9.9^b ng/ml | GH (barrows; SQ 30 µg/kg/d): 8.9^b ng/ml | TRIG. (barrows; IV 30 µg/kg/d): 35.3^b mg/dla | TRIG. (barrows; SQ 30 µg/kg/d): 32.5^ab mg/dla | BUN (barrows; IV 30 µg/kg/d): 7.0^b mg/dl | FFA (barrows; IV 30 µg/kg/d): 97.3^b µM/la | GLUCOSE (barrows; IV 30 µg/kg/d): 132.7^b mg/dl | INSULIN (barrows; IV 30 µg/kg/d): 76.8^b µu/ml | BUN (barrows; SQ 30 µg/kg/d): 7.5^b mg/dl | FFA (barrows; SQ 30 µg/kg/d): 97.5^b µM/la | GLUCOSE (barrows; SQ 30 µg/kg/d): 147.3^b mg/dl | INSULIN (barrows; SQ 30 µg/kg/d): 112.9^C µu/ml | depression in urinary urea nitrogen excretion prolonged after treatments were stopped (barrows; subcutaneously injected barrows): 2 to 3 days | UREA (barrows; IV 30 µg/kg/d): 16.3^b g/day | UREA (barrows; SQ 30 µg/kg/d): 16.4^b g/day

n-Phenylmalonamindoyl bGRF(2-77)0H
EC50 [1, 2]: 0.19 nM
